Consider four molecules from ChEMBL document CHEMBL3232720, “Boseongazepines A-C, pyrrolobenzodiazepine derivatives from a Streptomyces sp. 11A057” (Bioorg Med Chem Lett, 2014).

The source made the active and inactive calls. No cut-off for these calls is given here.

The first assay has as its system HepG2. Put plainly: Growth inhibition of human HepG2 cells after 96 hrs by EZ-CyTox cell viability assay. It is filed as functional, cell-based. The settings on record: HepG2, 96 h.
`C/C=C1\C[C@H]2CNc3c(OC)cccc3C(=O)N2C1` [USABAMYCIN B] came in with an IC50 of 10.6 µM. This counts as double-digit micromolar.
Regarding `C/C=C1\C[C@H]2C(=O)Nc3c(OC)cccc3C(=O)N2C1`, the IC50 is > 100 µM.
`C/C=C1\C[C@H]2CNc3ccccc3C(=O)N2C1`: the IC50 came to 68.9 µM.
The same measure, in the same setting: with `COc1cccc2c1NC[C@@H]1CC(C(C)=O)=CN1C2=O` the figure was 56.1 µM.

For another assay, the system named is Staphylococcus aureus. Briefly: Antimicrobial activity against Staphylococcus aureus assessed as growth inhibition at 50 ug/disk after 48 hrs by paper disk method. It is filed as functional, organism-based.
Conditions: not given
Consider `C/C=C1\C[C@H]2CNc3c(OC)cccc3C(=O)N2C1` [USABAMYCIN B], for which the “growth inhibition (GI)” value is “inactive”.
Turning to `C/C=C1\C[C@H]2C(=O)Nc3c(OC)cccc3C(=O)N2C1`, the “growth inhibition (GI)” value is “inactive”.
Still for that read-out and setting: with `C/C=C1\C[C@H]2CNc3ccccc3C(=O)N2C1` the entry was “inactive”; with `COc1cccc2c1NC[C@@H]1CC(C(C)=O)=CN1C2=O`, “inactive”.

Another assay deals with HL-60. Put plainly: Growth inhibition of human HL60 cells after 96 hrs by EZ-CyTox cell viability assay. It is filed as functional, cell-based. Conditions: HL-60, 96 h.
In turn, `C/C=C1\C[C@H]2CNc3c(OC)cccc3C(=O)N2C1` [USABAMYCIN B] gave an IC50 of 13.5 µM.
With `C/C=C1\C[C@H]2C(=O)Nc3c(OC)cccc3C(=O)N2C1`, the IC50 is > 100 µM.
As to `C/C=C1\C[C@H]2CNc3ccccc3C(=O)N2C1`, half-maximal inhibition (IC50) required 64.5 µM.
On the same count and under the same terms, then `COc1cccc2c1NC[C@@H]1CC(C(C)=O)=CN1C2=O`, with > 100 µM.

Another assay has as its system Bacillus subtilis. Briefly: Antimicrobial activity against Bacillus subtilis assessed as growth inhibition at 50 ug/disk after 48 hrs by paper disk method. The format is functional, organism-based.
Conditions: not given
Take `C/C=C1\C[C@H]2CNc3c(OC)cccc3C(=O)N2C1` [USABAMYCIN B]: the “growth inhibition (GI)” value is “inactive”.
On the same count and under the same terms, then `C/C=C1\C[C@H]2C(=O)Nc3c(OC)cccc3C(=O)N2C1`, with “inactive”.
On the same count and under the same terms, with `C/C=C1\C[C@H]2CNc3ccccc3C(=O)N2C1` the entry was “inactive”; with `COc1cccc2c1NC[C@@H]1CC(C(C)=O)=CN1C2=O`, “inactive”.

The test system of a further assay is Candida albicans. Put plainly: Antimicrobial activity against Candida albicans assessed as growth inhibition at 50 ug/disk after 48 hrs by paper disk method. The format is functional, organism-based.
Conditions: not given
For the molecule `C/C=C1\C[C@H]2CNc3c(OC)cccc3C(=O)N2C1` [USABAMYCIN B], the “growth inhibition (GI)” value was “inactive”.
Same read-out and setting: with `C/C=C1\C[C@H]2C(=O)Nc3c(OC)cccc3C(=O)N2C1` the entry was “inactive”.
Same read-out and setting: with `C/C=C1\C[C@H]2CNc3ccccc3C(=O)N2C1` the entry was “inactive”; with `COc1cccc2c1NC[C@@H]1CC(C(C)=O)=CN1C2=O`, “inactive”.

A further assay relates to Salinivibrio costicola. Put plainly: Antimicrobial activity against Vibrio costicola assessed as growth inhibition at 50 ug/disk after 48 hrs by paper disk method. It is filed as functional, organism-based.
Conditions: not given
`C/C=C1\C[C@H]2CNc3c(OC)cccc3C(=O)N2C1` [USABAMYCIN B]: the “growth inhibition (GI)” value was “inactive”.
Still for that read-out and setting: with `C/C=C1\C[C@H]2C(=O)Nc3c(OC)cccc3C(=O)N2C1` the entry was “inactive”.
Consider `C/C=C1\C[C@H]2CNc3ccccc3C(=O)N2C1`, for which the “growth inhibition (GI)” value was “inactive”.
The same measure, in the same setting: then `COc1cccc2c1NC[C@@H]1CC(C(C)=O)=CN1C2=O`, with “inactive”.

The next assay relates to Aspergillus fumigatus. Briefly: Antimicrobial activity against Aspergillus fumigatus assessed as growth inhibition at 50 ug/disk after 48 hrs by paper disk method.
Conditions: not given
It is filed as functional, organism-based.
`C/C=C1\C[C@H]2CNc3c(OC)cccc3C(=O)N2C1` [USABAMYCIN B]: the “growth inhibition (GI)” value was “inactive”.
On the same count and under the same terms, then `C/C=C1\C[C@H]2C(=O)Nc3c(OC)cccc3C(=O)N2C1`, with “inactive”; and `C/C=C1\C[C@H]2CNc3ccccc3C(=O)N2C1`, with “inactive”.
On the same count and under the same terms, then `COc1cccc2c1NC[C@@H]1CC(C(C)=O)=CN1C2=O`, with “inactive”.

A further assay deals with Escherichia coli. Briefly: Antimicrobial activity against Escherichia coli assessed as growth inhibition at 50 ug/disk after 48 hrs by paper disk method. It is filed as functional, organism-based.
Conditions: not given
`C/C=C1\C[C@H]2CNc3c(OC)cccc3C(=O)N2C1` [USABAMYCIN B]: the “growth inhibition (GI)” value was “inactive”.
Turning to `C/C=C1\C[C@H]2C(=O)Nc3c(OC)cccc3C(=O)N2C1`, the “growth inhibition (GI)” value was “inactive”.
The same measure, in the same setting: then `C/C=C1\C[C@H]2CNc3ccccc3C(=O)N2C1`, with “inactive”; and `COc1cccc2c1NC[C@@H]1CC(C(C)=O)=CN1C2=O`, with “inactive”.

In the next assay the test system is Jurkat. Put plainly: Growth inhibition of human Jurkat cells after 96 hrs by EZ-CyTox cell viability assay. It is filed as functional, cell-based.
Conditions: not given
The molecule `C/C=C1\C[C@H]2CNc3c(OC)cccc3C(=O)N2C1` [USABAMYCIN B] registered an IC50 of 6.26 µM.
Still for that read-out and setting: with `C/C=C1\C[C@H]2C(=O)Nc3c(OC)cccc3C(=O)N2C1` the figure was > 100 µM; with `C/C=C1\C[C@H]2CNc3ccccc3C(=O)N2C1`, 23.9 µM.
Still for that read-out and setting: with `COc1cccc2c1NC[C@@H]1CC(C(C)=O)=CN1C2=O` the figure was 72 µM.

In the next assay the test system is K562. Briefly: Growth inhibition of human K562 cells after 96 hrs by EZ-CyTox cell viability assay. It is filed as functional, cell-based. Conditions: K562, 96 h.
For `C/C=C1\C[C@H]2CNc3c(OC)cccc3C(=O)N2C1` [USABAMYCIN B], the IC50 is 10.1 µM.
For the molecule `C/C=C1\C[C@H]2C(=O)Nc3c(OC)cccc3C(=O)N2C1`, the IC50 was > 100 µM.
Still for that read-out and setting: with `C/C=C1\C[C@H]2CNc3ccccc3C(=O)N2C1` the figure was 58.8 µM; with `COc1cccc2c1NC[C@@H]1CC(C(C)=O)=CN1C2=O`, > 100 µM.

What is called IC50 is the midpoint of a concentration-inhibition curve. Lower therefore signals higher potency.
